Assay results as given in patent US10272080B2, “Selective dopamine D4 receptor agonists for treatment of working memory deficits” (priority 2013, dated 2019).

Tests used:
[1] = system: SAC mice; test: Y-maze spontaneous alternation assay in saccharin-only (SAC) control mice; format: in vivo, mice (C57/B6)
Description: (§1) A prenatal nicotine exposure (PNE) mouse model to screen for drugs that alleviate the symptoms of ADHD and associated working memory deficits is developed.^13,14 In this model, adult female C57/B6 mice are exposed to nicotine (100 μg/ml nicotine and 2% saccharin in drinking water, pH 7.2) starting 4-6 weeks prior to mating with drug-naïve male mice, and throughout their pregnancies. Two groups of age- and bodyweight-matched female mice are used as controls. In the saccharin-only (SAC) control group, mice were exposed to saccharin alone (2% saccharin in drinking water, pH 7.2), and mice in the plain drinking water (WATER) control group were exposed to drinking water without any additives. On the day the mice littered, the litter size was standardized to contain 6-8 offspring (4 males and 4 females, whenever possible). Within 48 hours of birth offspring from the PNE, SAC and WATER groups were removed from their biological mothers and cross fostered to drug-naïve nursing dams. At the age of 90 days (postnatal day 90; P90), male offspring from each group were used in experimental analyses.
On postnatal day 90 (P90), a Y-maze assay is used to examine changes in spontaneous alternation in the PNE mouse model. […]

[2] = system: PNE mice; test: Y-maze spontaneous alternation assay in prenatal nicotine exposure (PNE) mice; format: in vivo, mice (C57/B6); conditions: for spontaneous alternations in the PNE mice, comparison of methylphenidate and PD 168077: FIG. 10, n=9-10 per group; for changes in spontaneous alternations in PNE mice (Y-maze): PNE mice only, FIG. 6, N=8-9
Description: as §1
(§2) On postnatal day 90 (P90), a Y-maze assay is used to examine changes in spontaneous alternation in the PNE mouse model.
In additional experiments, saline, selective D1 receptor agonist (A-77636), selective D2/D3 receptor agonist (LY 171555), and selective D4 receptor agonist (PD 168077) are administered to the PNE and SAC mice followed with the assay of spontaneous alternations using the Y-maze.
Methylphenidate, the classic stimulant treatment for ADHD, is examined for its efficacy in alleviating working memory deficits in the PNE mice. It is disclosed that methylphenidate increases extracellular dopamine in the frontal cortex of mice.^1,14 In the example of the present invention, saline or a therapeutic equivalent dose of methylphenidate^18 is administered to PNE and SAC mice. The PNE and SAC mice administered saline or a therapeutic equivalent dose of methylphenidate are assayed for spontaneous alternations in the Y-maze.

[3] = system: drug naïve mice; test: Y-maze spontaneous alternation in drug naïve (WATER group) mice with pharmacological blockade of the D4 receptor; format: in vivo, mice (C57/B6); conditions: drug naïve mice given D4 antagonist L 745087, Panel B of FIG. 7
Description: as §1, §2

[4] = system: dopamine D4 receptor; test: GTPγS binding assay, D4 receptor activity in frontal cortical membrane preparations after methylphenidate treatment; format: biochemical, mice; conditions: FIG. 9
Description: Following the Y maze assay, GTPγS receptor binding assay is performed to examine the dopamine receptor signaling in mice of different groups and therefore to determine which dopamine subtypes are activated. GTPγS binding assay is used to measure agonist-induced dopamine receptor-G-protein coupling in membrane preparations obtained from specific brain regions such as the frontal cortex.^17 This assay uses pharmacological compounds that selectively activate each receptor subtype. Since compounds selective for each of the 5 dopamine receptor subtypes are not available yet, testing is limited to assaying activities of the D2/D3 and D4 receptor only. In this assay, a D2 receptor agonist LY 171555 and a selective D4R agonist PD 168077, both in 30 μM, are used to exam the activities of D2/D3 receptor and D4 receptor, respectively.
D2/D3 and D4 receptor activities are also analyzed using GTPγS binding assays with frontal cortical membrane preparations from PNE and SAC mice following the methylphenidate treatment. Increases are found in D4 agonist-induced G-protein coupling in the frontal cortices of PNE mice following the methylphenidate treatment, compared to saline treatment (Panel A, FIG. 9). […]

[5] = system: dopamine D2/D3 receptors; test: GTPγS binding assay, D2/D3 receptor activity in frontal cortical membrane preparations after methylphenidate treatment; format: biochemical; conditions: PNE or SAC mice after methylphenidate treatment, FIG. 9
Description: D2/D3 and D4 receptor activities are also analyzed using GTPγS binding assays with frontal cortical membrane preparations from PNE and SAC mice following the methylphenidate treatment. […] Mean±SEM, n=10-11 per group.

SMILES: Cc1cccc(C(=O)NCN2CCN(c3ccccc3C#N)CC2)c1 [PD 168077, N-([4-(2-cyanophenyl)piperazin-1-yl]methyl)-3-methylbenzamide]
- change in spontaneous alternations in the SAC group (Y-maze) ([1]; 20 mg/kg, FIG. 5): the change is not significant
- spontaneous alternations in the PNE mice, comparison of methylphenidate and PD 168077 [2]: greater than that of MPH
- working memory in prenatal nicotine exposure mouse models ([2]; PD 168077 about 10 mg per kilogram body weight): shows improvement in working memory
- working memory in prenatal nicotine exposure mouse models ([2]; PD 168077 about 20 mg per kilogram body weight): shows greater improvement in working memory
- difference in spontaneous alternations between the PNE group and the SAC group after administration ([2]; after PD 168077 administration, FIG. 5): no statistically significant difference
- spontaneous alternations in the PNE mice (Y-maze) ([2]; dose from about 10 mg/kg to about 20 mg/kg, FIG. 5): produces improvement in spontaneous alternations in the PNE mice in a dose dependent manner
- effect on L 745087 antagonist-induced decrease in spontaneous alternations [3]: abolishes the antagonist-induced decreases in spontaneous alternations in a dose-dependent manner

SMILES: NC[C@@H]1O[C@H](C23CC4CC(CC(C4)C2)C3)Cc2c1ccc(O)c2O [A-77636]
- changes in spontaneous alternations in PNE mice (Y-maze) [2]: neither the D1 nor the D2/D3 agonist produces significant changes

SMILES: COC(=O)C(c1ccccc1)C1CCCCN1 (stereo not shown) [methylphenidate]
- activity of D4 receptor in the prefrontal cortex (D4 agonist-induced G-protein coupling), Mean±SEM ([4]; MPH treated PNE mice, saline treated about 92.0±3.5): about 131.6±11.6
- D4 receptor activity in the SAC group ([4]; SAC mice receiving methylphenidate treatment): no significant change
- spontaneous alternations in the SAC control group (Y-maze) ([1]; single oral 0.75 mg/kg, FIG. 8): no significant effect
- D2/D3 receptor coupling to G-protein in the frontal cortices [5]: does not produce significant alterations
- spontaneous alternations in the PNE mice, comparison of methylphenidate and PD 168077 [2]: increase spontaneous alternations
- spontaneous alternation in PNE mice (Y-maze), Mean±SEM ([2]; single oral 0.75 mg/kg about 30 minutes before the Y maze assay, saline about 48.0±2.2, FIG. 8): about 57.1±1.8
- difference in spontaneous alternations between methylphenidate-exposed PNE mice and saline-exposed SAC control mice ([2]; single oral 0.75 mg/kg, FIG. 8): no longer a significant difference

SMILES: CCCN1CCC[C@@H]2Cc3n[nH]cc3C[C@H]21 [LY 171555]
- changes in spontaneous alternations in PNE mice (Y-maze) [2]: neither the D1 nor the D2/D3 agonist produces significant changes
